# Source: paper PMC5702336, “Critical Role of Hepatic Cyp450s in the Testis-Specific Toxicity of (5R)-5-Hydroxytriptolide in C57BL/6 Mice” (Frontiers in Pharmacology, 2017)
# Entries after “also recorded” stand apart in the source; their conditions may differ.
# System: WT and KO mice
# Test: 15-day oral toxicological study in WT and hepatic Cpr KO mice (organ weights, H&E, TUNEL, serum chemistry)
# Format: in vivo, mouse
# Excerpt: Animal use protocols were approved by the Institutional Animal Care and Use Committee of the Shanghai Institute of Materia Medica (Shanghai, China), IACUC No. 2016-10-RJ-136. The Cpr knockout (KO) mice were a gift from Professor Xinxin Ding (Wadsworth Center, Albany, NY, USA). Procedures for animal breeding and genotyping were reported previously (Wu et al., [2005]). Eight to twelve weeks old male KO mice and their WT littermates on a mixed C57BL/6 and 129/Sv genetic background were used in this study. All animals were provided with a certified standard diet and tap water ad libitum during experiments. All animals were maintained under controlled temperature with a 12 h:12 h light/dark cycle. All efforts were made to minimize animal discomfort and illness, and mice were anesthetized with pentobarbital sodium (150 mg/kg, i.p.) before sample collection. No animals died during the experiment.
# For toxicity experiments, mice (n = 3/group) were treated with LLDT-8 (0.5 or 1.0 mg/kg) consecutively administered by gavage for 15 days. Controls received saline. Mice were killed on the 15th-day post-administration and blood, liver, kidney, spleen, testes, and epididymis were collected. About 500 μL blood samples were collected from the heart. The main lobe of the liver, kidney, spleen, and epididymis was fixed in 10% neutral buffered formalin for histological examination, and the left testicle was fixed in modified Davidson's buffer (30% of a 37–40% solution of formaldehyde, 15% ethanol, 5% glacial acetic acid, and 50% distilled H2O) for 16 h followed by 10% neutral buffered formalin for 24 h (Latendresse et al., [2002]). Tissue sections were stained with hematoxylin and eosin (H&E). Remaining tissues were stored at −80°C for RNA and protein extraction.
# Sera were assayed for Urea, creatine (CRE), alanine aminotransferase (ALT), and aspartate transaminase (AST) using an automatic HITACHI Clinical Analyzer Model 7080 (Hitachi High-Technologies Corporation, Tokyo, Japan). The intercoefficients of variability in this assay were1.1% (ALT), 0.9% (AST), 1.2% (Urea) and 1.4% (CRE). The intracoefficients of variability in this assay were 2.0% (ALT), 0.9% (AST), 1.2% (Urea) and 5.1% (CRE).
# TUNEL assays were performed according to the manufacturer's protocol (In Situ Cell Death Kit, Roche Diagnostics, Indianapolis, IN). In brief, the paraffin-embedded testis tissue samples were deparaffinized three times in exchanges wash of xylene. The testis sections were then gradually rehydrated using decreasing ethanol concentrations (100, 95, 90, 80, and 70%) followed by PBS (pH = 7.4). After digestion with proteinase K (15 μg/mL, Cat. No. 539480, Lot. No. D00148754, Millipore, USA), paraffin-embedded tissue sections were labeled with a TUNEL reaction mixture, which contained terminal deoxynucleotidyl transferase incorporated with fluorescein. And 1 μg/mL DAPI (Sigma, USA) to used to reveal nuclear DNA. After staining, images were obtained with a fluorescent microscope (NIKON TS2, Japan).
# [1] = after LLDT-8 treatment, 15 days
structure (smiles),measurement,setting,value
"CC(C)[C@]12O[C@H]1[C@@H]1O[C@]13[C@]1(O[C@H]1C[C@@]1(O)C4=C(CC[C@]31C)C(=O)OC4)[C@@H]2O [LLDT-8, (5R)-5-hydroxytriptolide]",epididymis weight,0.5–1 mg/kg by gavage 15 days,not changed
same,testes weight,0.5–1 mg/kg by gavage 15 days,dose-dependently reduced
same,testis histology (H&E) in KO mice compared to WT mice,0.5–1 mg/kg by gavage 15 days,reduced germinal cell layers; also recorded: severe vacuolar degeneration; also recorded: absence of spermatids development
same,body weight,"0.5–1 mg/kg by gavage 15 days, WT and KO mice",did not alter
same,hematology and spleen in KO mice,15 days by gavage,induced hematological change and enlarged spleen
same,liver injury and kidney damage,"15 days by gavage, WT and KO mice",did not cause liver injury and kidney damage
same,TUNEL-positive foci in testes of WT mice vs WT mice with saline,[1],apparently increased
same,"number of TUNEL positive foci in testis, KO mice vs WT mice",[1],much higher
